Experimental data taken from patent US20240391930A1, “SPIROCYCLIC BICYCLIC MODULATORS OF CHOLESTEROL BIOSYNTHESIS AND THEIR USE FOR PROMOTING REMYELINATION” (GENENTECH, INC., priority 2021, published 2024).

How the values were obtained:
[1] = target: T1, human emopamil binding protein and human 7-dehydrocholesterol reductase (hEBP-DHCR7) (Homo sapiens, UniProt Q15125); assay: hEBP-DHCR7 radioligand filtration binding assay; details: membranes of HEK293 co-expressing hEBP and DHCR7; [3H] 2-thia-6-azaspiro[3.4]octane radioligand; 8 doses 0.06 to 5000 nM
T1 construct: expressed in transfected cells; host or cells: HEK 293 cells, transient transfection with 2 DNA constructs
Procedure: Membrane Preparation: human emopamil binding protein and human 7-dehydrocholesterol reductase co-expressing cells were generated by transient transfecting host human embryonic kidney (HEK) 293 cells with 2 DNA constructs containing each protein's coding sequence. Cells were suspension cultured at 37° C. with 5% CO2 in […] 293 Expression Medium (Thermofisher). Whole cell membrane was prepared by harvesting the cell pellet, adding cold membrane buffer (50 mM Tris, pH7.5, lx Roche COMPLETE EDTA-free protease inhibitor cocktail) 10 times volume of the cell pellets weight, lysing cell pellet on ice by using Dounce homogenizer, spinning at 200 g 4° C. for 15 min, collecting supernatant and spinning again at 25000 g 4° C. for 50 min, transferring pellet to Dounce homogenizer, re-suspending pellet by homogenizing in membrane buffer on ice to reach ˜25 mg/mL, then keeping whole cell membrane aliquots at −80° C.
Compounds were prepared in a 96-well U bottom plate using an Echo550 machine and 10 mM compound DMSO stock solution, followed by an 8-dose 5-fold serial dilutions protocol with final testing compound concentration ranging from 0.06 to 5000 nM, with DMSO back fill to 100 nL/well and n=2. […] The UniFilter-96 GF/B plates were pre-treated by adding 50 µl/well of 0.3% (v/v) PEI to UniFilter-96 GF/B plates. The plates were sealed and incubated at 4° C. for 3 hrs. Then, the plates were washed with ice-cold assay buffer 3 times. The radioligand binding assay was prepared by adding assay buffer diluted hEBP-DHCR7 membrane at 66.7 μg/ml×150 l/well into the 96-well compound plate to reach 10 μg membrane per well. Then, the assay buffer diluted [3H]—((S)-6-(2-Methyl-3-(6-(trifluoromethyl)pyridin-3-yl)propyl)-2-thia-6-azaspiro[3.4]octane 2,2-dioxide or (R)-6-(2-Methyl-3-(6-(trifluoromethyl)pyridin-3-yl)propyl)-2-thia-6-azaspiro[3.4]octane 2,2-dioxide) was added at 25 nM×50 l/well. Following this, the plate was centrifuged at 1000 rpm for 30 secs. The plate was then sealed and agitated at 600 rpm at 22° C. for 5 min, and then incubated at 22° C. for 3 hrs. The incubation was stopped by transferring the binding solution to the pre-treated UniFilter-96 GF/B plate, vacuum filtrated, and then washed four times with ice-cold assay buffer. Following this, the plates were dried at 37° C. for 45 min. The plates were then sealed at the bottom. 40 µl/well of scintillation cocktail was added to the plates. A MicroBeta2 microplate counter was then used to read the plate and analyze the data. For reference and test compounds, the results are expressed as % Inhibition, using the normalization equation: N=100−100×(U−C2)/(C1−C2), where U is the unknown value, C1 is the average of high controls, and C2 is the average value of low controls. The IC50 was determined by fitting percentage of inhibition as a function of compound concentrations with Hill equation using XLfit. Results are expressed as hEBP-DHCR7 Ki (uM) in Table 4. Ki was calculated as described above; * indicates isolated isomer or isomers, but that the stereochemistry has not been assigned.

[2] = test system: zymostenol accumulation in EpiSC-derived OPCs (EBP); assay: GC/MS-based sterol profiling (zymostenol accumulation); type: cell-based; details: Mus musculus, 24 hours, 8 doses from 0.15 nM to 333 nM, read-out: Zymostenol GCMS EC50
Procedure: (§1) To assess effects of treatments on OPCs, all treatments were assayed in two or more independent platings of epiblast stem cell-derived OPCs (EpiSC). EpiSC-derived OPCs were obtained using in vitro differentiation protocols and culture conditions described previously (Najm et al, 2011, Nature Methods). OPCs were expanded and frozen down in aliquots. OPCs were thawed into growth conditions for at least one passage before use in further assays.
Sterols were monitored using a modified Folch wash protocol (Hubler et al, 2018, Nature). EpiSC-derived OPCs were plated at 100,000 cells per well in PO- and laminin-coated 96-well plates in N2B27 media without growth factors. After 24 hours, cells were rinsed with saline and plates were frozen. Cholesterol-d7 standard was then added to each well before drying under nitrogen stream and derivatization with 55 μl of bis(trimethylsilyl) trifluoroacetamide. After derivatization, 2 μl were analyzed by gas chromatography/mass spectrometry using an Agilent 5973 Network Mass Selective Detector equipped with a 6890 gas chromatograph system and a HP-5MS capillary column (30 m×0.25 mm×[…]). Samples were analyzed in full scan mode using electron impact ionization; ion fragment peaks were integrated to calculate sterol abundance, and quantitation was relative to cholesterol-d7. The following ion fragments were used to quantitate each metabolite: cholesterol-d7 (465), FF-Mas (482), cholesterol (368), zymostenol (458), zymosterol (456), Desmosterol (456, 343), 7-dehydrocholesterol (456, 325), lanosterol (393), lathosterol (458), 14-dehydrozymostenol (456, 351). […] All standards were obtained from Avanti Polar Lipids unless otherwise indicated. Calibration curves were generated by injecting varying concentrations of sterol standards and maintaining a fixed amount of cholesterol-D7. For normalized zymostenol accumulation results, the total amount of zymostenol measured after drug treatment was divided by the total amount of zymostenol accumulated after 24 hr treatment with 100 nM positive control reference.

[3] = test system: EpiSC-derived OPCs; assay: In vitro phenotypic screening of OPCs (MBP high-content imaging); type: cell-based; details: Mus musculus, 72 h; percentage of MBP-positive oligodendrocytes, 3 days, 0.5 nM to 1000 nM; read-out: OPC EC50
Procedure: as §1
EpiSC-derived OPCs were grown and expanded in poly-L-ornithine (PO) and laminin-coated flasks in N2B27 media (DMEM/F12 (Gibco), N2-MAX (R&D Systems), B-27 (ThermoFisher), and GlutaMax (Gibco)) supplemented with FGF2 ([…], R&D systems, 233-FB-025) and PDGF-AA ([…], R&D systems, 233-AA-050) before harvesting for experiments. The cells were seeded onto poly-L-ornithine or poly-D-lysine coated CellCarrier Ultra plates (PerkinElmer) coated with laminin (Sigma, L2020) at a density of 150,000/cm^2 in N2B27 media without growth factors. For dose-response testing, a 1000× compound stock in dimethyl sulphoxide (DMSO) was added to assay plates, resulting in 8-point dose curves with final concentrations between 1000 nM and 0.5 nM. Positive controls and DMSO vehicle controls were included in each assay plate. Cells were incubated under standard conditions (37° C., 5% CO2) for 3 days and fixed with 4% paraformaldehyde (PFA) in phosphate buffered saline (PBS) for 20 min. Fixed plates were washed with PBS, permeabilized with 0.1% Triton X-100, and blocked with 10% donkey serum (v/v) in PBS for 40 min. Then, cells were labelled with MBP antibodies (Abcam, ab7349; 1:200) for 2 h at room temperature, washed with PBS, and stained with Alexa Fluor conjugated secondary antibodies (1:500) for 45 min. Nuclei were visualized by DAPI staining (Sigma; 1 μg/ml), followed by further PBS washes.
Cells and cell culture plates were imaged on the Operetta High Content Imaging and Analysis system (PerkinElmer). Analysis (PerkinElmer Harmony and Columbus software) began by identifying intact nuclei stained by DAPI. The peri-nuclear region of each cell was then cross-referenced with the […] (MBP) stain to identify oligodendrocyte nuclei, and from this the percentage of oligodendrocytes was calculated.

T1 sequence (Q15125 whole entry): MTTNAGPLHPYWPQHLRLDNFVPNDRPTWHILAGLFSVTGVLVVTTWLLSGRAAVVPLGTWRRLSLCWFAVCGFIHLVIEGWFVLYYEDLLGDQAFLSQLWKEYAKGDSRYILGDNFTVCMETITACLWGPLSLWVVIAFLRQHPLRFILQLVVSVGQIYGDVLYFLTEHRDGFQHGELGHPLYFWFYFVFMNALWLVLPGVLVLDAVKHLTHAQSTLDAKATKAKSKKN

Ki [1] [nM] | EC50 [2] [nM] | EC50 [3] [nM] | Compound
131 | 8.1 | 14 | CC(C)n1nc(-c2cncc(OC(F)F)c2)cc1[C@H]1[C@@H]2C[C@@H](N3CCC4(CC3)CS(=O)(=O)C4)C[C@@H]21 (single isomer, unassigned) [Compound 45*]
34.6 | 24 | 44 | CC(C)n1nc(-c2cncc(OC(F)F)c2)cc1[C@H]1[C@@H]2C[C@H](N3CCC4(CC3)CS(=O)(=O)C4)C[C@@H]21 (single isomer, unassigned) [Compound 46*]
97.3 | 6.8 | 33 | CCn1nc(-c2cncc(C(F)(F)F)c2)cc1[C@H]1[C@@H]2C[C@@H](N3CCC4(CC3)CS(=O)(=O)C4)C[C@@H]21 (single isomer, unassigned) [Compound 53*]
32.8 | 9.1 | 31 | CCn1nc(-c2cncc(C(F)(F)F)c2)cc1[C@H]1[C@@H]2C[C@H](N3CCC4(CC3)CS(=O)(=O)C4)C[C@@H]21 (single isomer, unassigned) [Compound 54*]
26 | 3.5 | 18 | CC(C)(C)n1nc(C(F)(F)F)cc1[C@H]1[C@@H]2C[C@@H](N3CCC4(C3)CS(=O)(=O)C4)C[C@@H]21 (single isomer, unassigned) [Compound 57]
12 | 3.3 | 19 | CC(C)(C)n1nc(C(F)(F)F)cc1[C@H]1[C@@H]2C[C@H](N3CCC4(C3)CS(=O)(=O)C4)C[C@@H]21 (single isomer, unassigned) [Compound 58]
134 | 12 | 60 | O=S1(=O)CC2(CCN([C@@H]3C[C@@H]4[C@H](C3)[C@H]4c3cc(C(F)(F)F)nn3CC(F)F)CC2)C1 (single isomer, unassigned) [Compound 62*]
65.2 | 19 | 130 | O=S1(=O)CC2(CCN([C@H]3C[C@@H]4[C@H](C3)[C@H]4c3cc(C(F)(F)F)nn3CC(F)F)CC2)C1 (single isomer, unassigned) [Compound 63*]
51.9 | 18 | 65 | CCn1nc(-c2cccnc2)cc1[C@H]1[C@@H]2C[C@H](N3CCC4(C3)CS(=O)(=O)C4)C[C@@H]21 (single isomer, unassigned) [Compound 65*]
86.2 | 14 | 60 | CCn1nc(-c2cncc(F)c2)cc1[C@H]1[C@@H]2C[C@@H](N3CCC4(C3)CS(=O)(=O)C4)C[C@@H]21 (single isomer, unassigned) [Compound 68*]
34.3 | 4.4 | 27 | CCn1nc(-c2cncc(F)c2)cc1[C@H]1[C@@H]2C[C@H](N3CCC4(C3)CS(=O)(=O)C4)C[C@@H]21 (single isomer, unassigned) [Compound 69*]
14.9 | 2.2 | 6.2 | CC(C)(C)n1nc(-c2cccc(C(F)(F)F)c2)nc1[C@H]1[C@@H]2C[C@@H](N3CCC4(C3)CS(=O)(=O)C4)C[C@@H]21 (single isomer, unassigned) [Compound 75]
70.5 | 21 | 190 | O=S1(=O)CC2(CCN([C@@H]3C[C@@H]4[C@H](C3)[C@H]4c3cc(C(F)(F)F)nn3CC(F)F)C2)C1 (single isomer, unassigned) [Compound 90*]
42.5 | 14 | 64.6 | CC(C)n1nc(-c2cnc(C(F)(F)F)nc2)cc1[C@H]1[C@@H]2C[C@@H](N3CCC4(C3)CS(=O)(=O)C4)C[C@@H]21 (single isomer, unassigned) [Compound 102]
164 | 25.8 | 175 | CC(C)n1nc([C@H]2CC[C@](O)(C(F)(F)F)CC2)cc1[C@H]1[C@@H]2C[C@@H](N3CCC4(C3)CS(=O)(=O)C4)C[C@@H]21 (single isomer, unassigned) [Compound 104*]
16 | 7.59 | 52.5 | CC(C)n1nc([C@H]2CC[C@H](C(F)(F)F)CC2)cc1[C@H]1[C@@H]2C[C@@H](N3CCC4(C3)CS(=O)(=O)C4)C[C@@H]21 (single isomer, unassigned) [Compound 107]
19.8 | 4.4 | 6.5 | CCn1nc(-c2ccnc(C(F)(F)F)c2)cc1[C@H]1[C@@H]2C[C@@H](N3CCC4(C3)CS(=O)(=O)C4)C[C@@H]21 [Compound 26, 6-((1R,3s,5S,6r)-6-(1-ethyl-3-(2-(trifluoromethyl)pyridin-4-yl)-1H-pyrazol-5-yl)bicyclo[3.1.0]hexan-3-yl)-2-thia-6-azaspiro[3.4]octane 2,2-dioxide]
11.6 | 2.3 | 1.6 | CCn1nc(-c2ccnc(C(F)(F)F)c2)cc1[C@H]1[C@@H]2C[C@H](N3CCC4(C3)CS(=O)(=O)C4)C[C@@H]21 [Compound 27, 6-((1R,3r,5S,6r)-6-(1-ethyl-3-(2-(trifluoromethyl)pyridin-4-yl)-1H-pyrazol-5-yl)bicyclo[3.1.0]hexan-3-yl)-2-thia-6-azaspiro[3.4]octane 2,2-dioxide]
